Data reported in PubChem BioAssay (NCI).
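A five-concentration, 48-hour dose response in 96-well plates underlies each endpoint, interpolated linearly between surrounding concentrations. GI50 is the concentration that inhibits growth by half. TGI denotes the concentration required for complete inhibition of growth.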

How the values were obtained:
Experiment in all cases: NCI anticancer screen, dose series, 48 h
[1] = system: UACC-62 melanoma
[2] = system: PC-3 prostate
[3] = system: SNB-75 CNS
[4] = system: A549 NSCLC
[5] = system: SK-MEL-5 melanoma
[6] = system: CAKI-1 renal
[7] = system: EKVX NSCLC
[8] = system: ACHN renal
[9] = system: IGROV1 ovarian
[10] = system: NCI-H522 lung
[11] = system: MDA-MB-435
[12] = system: MOLT-4 leukemia
[13] = system: HL-60(TB) leukemia
[14] = system: TK-10 renal
[15] = system: SNB-19 CNS
[16] = system: NCI-H460 lung
[17] = system: SR leukemia
[18] = system: MALME-3M melanoma
[19] = system: DU-145 prostate
[20] = system: NCI-H23 lung
[21] = system: NCI/ADR-RES ovarian
[22] = system: OVCAR-8 ovarian
[23] = system: K-562 leukemia
[24] = system: LOX IMVI melanoma
[25] = system: SK-MEL-28 melanoma
[26] = system: HCC-2998 colon
[27] = system: COLO 205 colon
[28] = system: HCT-116 colon
[29] = system: HOP-62 NSCLC
[30] = system: SN12C renal
[31] = system: MCF7 breast
[32] = system: U251 CNS
[33] = system: SK-MEL-2 melanoma
[34] = system: RPMI-8226 leukemia
[35] = system: HS 578T breast
[36] = system: SF-268 CNS
[37] = system: OVCAR-3 ovarian
[38] = system: UO-31 renal
[39] = system: HT29 colon
[40] = system: CCRF-CEM leukemia
[41] = system: RXF 393 renal
[42] = system: OVCAR-5 ovarian
[43] = system: M14 melanoma
[44] = system: SF-539 CNS
[45] = system: SK-OV-3 ovarian
[46] = system: UACC-257 melanoma
[47] = system: T-47D breast
[48] = system: BT-549 breast
[49] = system: A498 renal
[50] = system: 786-0 renal
[51] = system: MDA-MB-231 breast
[52] = system: HCT-15 colon
[53] = system: OVCAR-4 ovarian
[54] = system: SF-295 CNS
[55] = system: KM12 colon
[56] = system: HOP-92 NSCLC
[57] = system: NCI-H226 lung
[58] = system: SW-620 colon

**Q.** With `COc1ccc(/C=N/NC(=O)c2[nH]c3ccc(Br)cc3c2-c2ccccc2)s1` as the compound, how does the GI50 [1] read?
**A.** 146 nM

**Q.** And the TGI [1]?
**A.** > 51500 nM

**Q.** What about the GI50 [2] of the same compound?
**A.** 263 nM

**Q.** And the TGI [2]?
**A.** > 89400 nM

**Q.** What about the GI50 [3] of the same compound?
**A.** 148 nM

**Q.** What about the TGI [3] of the same compound?
**A.** 20000 nM

**Q.** And the GI50 [4]?
**A.** 160 nM

**Q.** What about the TGI [4] of the same compound?
**A.** > 100000 nM

**Q.** What about the GI50 [5] of the same compound?
**A.** 101 nM

**Q.** And the TGI [5]?
**A.** 394 nM

**Q.** And the GI50 [6]?
**A.** 168 nM

**Q.** What about the TGI [6] of the same compound?
**A.** > 57300 nM

**Q.** What about the GI50 [7] of the same compound?
**A.** 3550 nM

**Q.** And the TGI [7]?
**A.** > 100000 nM

**Q.** What about the GI50 [8] of the same compound?
**A.** 169 nM

**Q.** What about the TGI [8] of the same compound?
**A.** > 52800 nM

**Q.** What about the GI50 [9] of the same compound?
**A.** 123 nM

**Q.** And the TGI [9]?
**A.** 25200 nM

**Q.** And the GI50 [10]?
**A.** 19.3 nM

**Q.** And the TGI [10]?
**A.** 54.4 nM

**Q.** What about the GI50 [11] of the same compound?
**A.** 65.6 nM

**Q.** And the TGI [11]?
**A.** 153 nM

**Q.** What about the GI50 [12] of the same compound?
**A.** 113 nM

**Q.** What about the TGI [12] of the same compound?
**A.** > 100000 nM

**Q.** What about the GI50 [13] of the same compound?
**A.** 77.8 nM

**Q.** And the TGI [13]?
**A.** 2690 nM

**Q.** What about the GI50 [14] of the same compound?
**A.** 3720 nM

**Q.** And the TGI [14]?
**A.** > 75100 nM

**Q.** What about the GI50 [15] of the same compound?
**A.** 275 nM

**Q.** What about the TGI [15] of the same compound?
**A.** > 95200 nM

**Q.** And the GI50 [16]?
**A.** 246 nM

**Q.** And the TGI [16]?
**A.** 3630 nM

**Q.** What about the GI50 [17] of the same compound?
**A.** 102 nM

**Q.** What about the TGI [17] of the same compound?
**A.** > 100000 nM

**Q.** And the GI50 [18]?
**A.** 148 nM

**Q.** And the TGI [18]?
**A.** > 70300 nM

**Q.** What about the GI50 [19] of the same compound?
**A.** 135 nM

**Q.** And the TGI [19]?
**A.** 45700 nM

**Q.** What about the GI50 [20] of the same compound?
**A.** 124 nM

**Q.** What about the TGI [20] of the same compound?
**A.** > 47700 nM

**Q.** And the GI50 [21]?
**A.** 39.8 nM

**Q.** What about the TGI [21] of the same compound?
**A.** 4360 nM

**Q.** And the GI50 [22]?
**A.** 59.3 nM

**Q.** And the GI50 [23]?
**A.** 113 nM

**Q.** And the TGI [23]?
**A.** > 100000 nM

**Q.** And the GI50 [24]?
**A.** 38.4 nM

**Q.** What about the TGI [24] of the same compound?
**A.** > 100000 nM

**Q.** What about the GI50 [25] of the same compound?
**A.** 745 nM

**Q.** What about the TGI [25] of the same compound?
**A.** > 100000 nM

**Q.** What about the GI50 [26] of the same compound?
**A.** 349 nM

**Q.** What about the TGI [26] of the same compound?
**A.** > 71600 nM

**Q.** And the GI50 [27]?
**A.** 195 nM

**Q.** And the TGI [27]?
**A.** 375 nM

**Q.** What about the GI50 [28] of the same compound?
**A.** 103 nM

**Q.** What about the GI50 [29] of the same compound?
**A.** 455 nM

**Q.** What about the TGI [29] of the same compound?
**A.** > 87800 nM

**Q.** And the GI50 [30]?
**A.** 116 nM

**Q.** And the TGI [30]?
**A.** > 42100 nM

**Q.** What about the GI50 [31] of the same compound?
**A.** 110 nM

**Q.** What about the TGI [31] of the same compound?
**A.** 14400 nM

**Q.** And the GI50 [32]?
**A.** 259 nM

**Q.** And the TGI [32]?
**A.** > 100000 nM

**Q.** And the GI50 [33]?
**A.** 93.5 nM

**Q.** What about the TGI [33] of the same compound?
**A.** 36400 nM

**Q.** And the GI50 [34]?
**A.** 118 nM

**Q.** What about the TGI [34] of the same compound?
**A.** > 100000 nM

**Q.** And the GI50 [35]?
**A.** 1140 nM

**Q.** And the TGI [35]?
**A.** > 31400 nM

**Q.** What about the GI50 [36] of the same compound?
**A.** 532 nM

**Q.** What about the TGI [36] of the same compound?
**A.** > 100000 nM

**Q.** What about the GI50 [37] of the same compound?
**A.** 249 nM

**Q.** And the TGI [37]?
**A.** 823 nM

**Q.** What about the GI50 [38] of the same compound?
**A.** 188 nM

**Q.** What about the TGI [38] of the same compound?
**A.** > 100000 nM

**Q.** What about the GI50 [39] of the same compound?
**A.** 84.6 nM

**Q.** What about the TGI [39] of the same compound?
**A.** 3290 nM

**Q.** And the GI50 [40]?
**A.** 121 nM

**Q.** And the TGI [40]?
**A.** > 100000 nM

**Q.** What about the GI50 [41] of the same compound?
**A.** 299 nM

**Q.** And the TGI [41]?
**A.** 910 nM

**Q.** And the GI50 [42]?
**A.** 136 nM

**Q.** And the TGI [42]?
**A.** > 100000 nM

**Q.** What about the GI50 [43] of the same compound?
**A.** 142 nM

**Q.** What about the TGI [43] of the same compound?
**A.** > 100000 nM

**Q.** And the GI50 [44]?
**A.** 72.4 nM

**Q.** And the TGI [44]?
**A.** 206 nM

**Q.** And the GI50 [45]?
**A.** 219 nM

**Q.** What about the TGI [45] of the same compound?
**A.** 99400 nM

**Q.** And the GI50 [46]?
**A.** 283 nM

**Q.** What about the TGI [46] of the same compound?
**A.** > 100000 nM

**Q.** And the GI50 [47]?
**A.** 7100 nM

**Q.** What about the TGI [47] of the same compound?
**A.** > 100000 nM

**Q.** What about the GI50 [48] of the same compound?
**A.** 88.5 nM

**Q.** What about the TGI [48] of the same compound?
**A.** 367 nM

**Q.** What about the GI50 [49] of the same compound?
**A.** 33800 nM

**Q.** What about the TGI [49] of the same compound?
**A.** > 100000 nM

**Q.** And the GI50 [50]?
**A.** 152 nM

**Q.** What about the TGI [50] of the same compound?
**A.** > 100000 nM

**Q.** And the GI50 [51]?
**A.** 336 nM

**Q.** And the TGI [51]?
**A.** 15700 nM

**Q.** And the GI50 [52]?
**A.** 141 nM

**Q.** What about the TGI [52] of the same compound?
**A.** > 37000 nM

**Q.** What about the GI50 [53] of the same compound?
**A.** 224 nM

**Q.** What about the TGI [53] of the same compound?
**A.** 57600 nM

**Q.** What about the GI50 [54] of the same compound?
**A.** 106 nM

**Q.** What about the TGI [54] of the same compound?
**A.** 15100 nM

**Q.** And the GI50 [55]?
**A.** 301 nM

**Q.** And the TGI [55]?
**A.** > 60500 nM

**Q.** What about the GI50 [56] of the same compound?
**A.** 1280 nM

**Q.** And the TGI [56]?
**A.** > 100000 nM

**Q.** And the GI50 [57]?
**A.** 115 nM

**Q.** And the TGI [57]?
**A.** 30200 nM

**Q.** What about the GI50 [58] of the same compound?
**A.** 147 nM

**Q.** And the TGI [58]?
**A.** > 100000 nM
